Data reported in patent US11180462B2, “Microbiocidal oxadiazole derivatives” (SYNGENTA PARTICIPATIONS AG, priority 2015, dated 2021).

Legend:
[1] = test system: Glomerella lagenarium (Colletotrichum lagenarium); test: Fungicidal activity against Glomerella lagenarium (Colletotrichum lagenarium) liquid culture / cucumber / preventative (anthracnose); format: cell-based; details: Colletotrichum orbiculare; 20 ppm in the applied formulation; liquid culture (PDB), growth inhibition measured photometrically after 3 to 4 days; compared to untreated control; read-out: disease control
Method in brief: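 Percent activity against the untreated check was derived from photometric growth measurements made 2 to 7 days after conidia in potato dextrose broth were combined with compound at 20 ppm. Cultures were kept dark at 24 °C and 96% humidity.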

Phakopsora Pachyrhizi = test: Fungicidal activity against Phakopsora pachyrhizi / soybean / leaf disc preventative (Asian soybean rust); format: in vivo; details: foliar, 200 ppm in the applied formulation, soybean leaf disks, compared to untreated control leaf disks, read-out: disease control
Method in brief: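 Scored 12 to 14 days post-application as percent control relative to untreated check discs, rust spores were sprayed under the disc one day after compound treatment. Incubation: 20°C, 75% rh, first 24–36 h in darkness, then 12 h daily light; discs kept on water agar.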

[2] = test system: Puccinia recondita f. Sp. Tritici; test: Fungicidal activity against Puccinia recondita f. sp. tritici / wheat / leaf disc preventative (brown rust); format: in vivo; details: foliar, 200 ppm in the applied formulation, wheat leaf segments, preventative, compared to untreated control leaf disks, read-out: disease control
Method in brief: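 Percent disease control relative to untreated check segments is scored once disease develops, 7 to 9 days after application. Wheat cv. Kanzler segments receive compound spray (200 ppm in formulation) one day before spore inoculation, then sit at 19° C. and 75% rh under 12 h light/12 h dark.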

[3] = test system: Puccinia recondita f. Sp. Tritici; test: Fungicidal activity against Puccinia recondita f. sp. tritici / wheat / leaf disc curative (brown rust); format: in vivo; details: foliar, 24 h, 200 ppm in the applied formulation, wheat leaf segments, curative (applied 1 day after inoculation), compared to untreated control leaf disks, read-out: disease control
Method in brief: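 Scoring is percent disease control relative to untreated segments, made 6 to 8 days after treatment. Wheat (cv. Kanzler) leaf segments received the formulated, water-diluted compound one day post-inoculation with spores, having been kept dark at 19° C and 75% RH, then incubated under 12 h light/12 h dark at the same temperature and humidity.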

CON(Cc1ccc(-c2noc(C(F)(F)F)n2)cc1)C(C)=O [Compound 1.1, N-methoxy-N-[[4-[5-(trifluoromethyl)-1,2,4-Oxadiazol-3-yl]Phenyl]Methyl]-Acetamide]
≥ 80%: inhibition of growth at 20 ppm [1] | pest or weed control at 200 ppm (Phakopsora Pachyrhizi) | pest or weed control at 200 ppm [2] | pest or weed control at 200 ppm [3]

CON(Cc1ccc(-c2noc(C(F)(F)F)n2)cc1)C(=O)C1CC1 [Compound 1.2, N-methoxy-N-[[4-[5-(trifluoromethyl)-1,2,4-oxadiazol-3-yl]phenyl]methyl]-cyclopropane-carboxamide]
≥ 80%: inhibition of growth at 20 ppm [1] | pest or weed control at 200 ppm (Phakopsora Pachyrhizi) | pest or weed control at 200 ppm [2] | pest or weed control at 200 ppm [3]

CON(Cc1ccc(-c2noc(C(F)(F)F)n2)cc1)C(=O)c1ccccc1 [Compound 1.3, N-methoxy-N-[[4-[5-(trifluoromethyl)-1,2,4-oxadiazol-3-yl]phenyl]methyl]-benzamide]
≥ 80%: inhibition of growth at 20 ppm [1] | pest or weed control at 200 ppm (Phakopsora Pachyrhizi) | pest or weed control at 200 ppm [2] | pest or weed control at 200 ppm [3]

CON(Cc1ccc(-c2noc(C(F)(F)F)n2)cc1)C(=O)Cc1ccccc1 [Compound 1.4, N-methoxy-2-phenyl-N-[[4-[5-(trifluoromethyl)-1,2,4-oxadiazol-3-yl]phenyl]methyl]-acetamide]
≥ 80%: inhibition of growth at 20 ppm [1] | pest or weed control at 200 ppm (Phakopsora Pachyrhizi) | pest or weed control at 200 ppm [2] | pest or weed control at 200 ppm [3]

CON(Cc1ccc(-c2noc(C(F)(F)F)n2)cc1)C(=O)C1(C(F)(F)F)CC1 [Compound 1.6, N-methoxy-1-(trifluoromethyl)-N-[[4-[5-(trifluoromethyl)-1,2,4-oxadiazol-3-yl]phenyl]methyl]-cyclopropane-carboxamide]
≥ 80%: inhibition of growth at 20 ppm [1] | pest or weed control at 200 ppm (Phakopsora Pachyrhizi) | pest or weed control at 200 ppm [2] | pest or weed control at 200 ppm [3]

CON(Cc1ccc(-c2noc(C(F)(F)F)n2)cc1)C(=O)CC1CCCC1 [Compound 1.8, 2-cyclopentyl-N-methoxy-N-[[4-[5-(trifluoromethyl)-1,2,4-oxadiazol-3-yl]phenyl]methyl]-acetamide]
≥ 80%: inhibition of growth at 20 ppm [1] | pest or weed control at 200 ppm (Phakopsora Pachyrhizi) | pest or weed control at 200 ppm [2] | pest or weed control at 200 ppm [3]

C#CCCC(=O)N(Cc1ccc(-c2noc(C(F)(F)F)n2)cc1)OC [Compound 1.11, N-methoxy-N-[[4-[5-(trifluoromethyl)-1,2,4-oxadiazol-3-yl]phenyl]methyl]-pent-4-ynamide]
≥ 80%: inhibition of growth at 20 ppm [1] | pest or weed control at 200 ppm (Phakopsora Pachyrhizi) | pest or weed control at 200 ppm [2] | pest or weed control at 200 ppm [3]

CON(Cc1ccc(-c2noc(C(F)(F)F)n2)cc1)C(=O)C(C)C [Compound 1.12, N-methoxy-2-methyl-N-[[4-[5-(trifluoromethyl)-1,2,4-oxadiazol-3-yl]phenyl]methyl]-propanamide]
≥ 80%: inhibition of growth at 20 ppm [1] | pest or weed control at 200 ppm (Phakopsora Pachyrhizi) | pest or weed control at 200 ppm [2] | pest or weed control at 200 ppm [3]

CON(Cc1ccc(-c2noc(C(F)(F)F)n2)cc1)C(=O)C1CC1(F)F (centres unmarked) [Compound 1.15, 2,2-difluoro-N-methoxy-N-[[4-[5-(trifluoromethyl)-1,2,4-oxadiazol-3-yl]phenyl]methyl]-cyclopropane-carboxamide]
≥ 80%: inhibition of growth at 20 ppm [1] | pest or weed control at 200 ppm (Phakopsora Pachyrhizi) | pest or weed control at 200 ppm [2] | pest or weed control at 200 ppm [3]

CON(Cc1ccc(-c2noc(C(F)(F)F)n2)cc1)C(=O)C1CCCCC1 [Compound 1.16, N-methoxy-N-[[4-[5-(trifluoromethyl)-1,2,4-oxadiazol-3-yl]phenyl]methyl]-cyclohexane-carboxamide]
≥ 80%: inhibition of growth at 20 ppm [1] | pest or weed control at 200 ppm (Phakopsora Pachyrhizi) | pest or weed control at 200 ppm [2] | pest or weed control at 200 ppm [3]

C=CCCC(=O)N(Cc1ccc(-c2noc(C(F)(F)F)n2)cc1)OC [Compound 1.17, N-methoxy-N-[[4-[5-(trifluoromethyl)-1,2,4-oxadiazol-3-yl]phenyl]methyl]-pent-4-enamide]
≥ 80%: inhibition of growth at 20 ppm [1] | pest or weed control at 200 ppm (Phakopsora Pachyrhizi) | pest or weed control at 200 ppm [2] | pest or weed control at 200 ppm [3]

CON(Cc1ccc(-c2noc(C(F)(F)F)n2)cc1)C(=O)C1(C(F)(F)F)CCC1 [Compound 1.19, N-methoxy-1-(trifluoromethyl)-N-[[4-[5-(trifluoromethyl)-1,2,4-oxadiazol-3-yl]phenyl]methyl]-cyclobutane-carboxamide]
≥ 80%: inhibition of growth at 20 ppm [1] | pest or weed control at 200 ppm (Phakopsora Pachyrhizi) | pest or weed control at 200 ppm [2] | pest or weed control at 200 ppm [3]

CCCCCC(=O)N(Cc1ccc(-c2noc(C(F)(F)F)n2)cc1)OC [Compound 1.20, N-methoxy-N-[[4-[5-(trifluoromethyl)-1,2,4-oxadiazol-3-yl]phenyl]methyl]-hexanamide]
≥ 80%: inhibition of growth at 20 ppm [1] | pest or weed control at 200 ppm (Phakopsora Pachyrhizi) | pest or weed control at 200 ppm [2] | pest or weed control at 200 ppm [3]

CON(Cc1ccc(-c2noc(C(F)(F)F)n2)cc1)C(=O)C(C)CC(C)=O (centres unmarked) [Compound 1.22, N-methoxy-2-methyl-4-oxo-N-[[4-[5-(trifluoromethyl)-1,2,4-oxadiazol-3-yl]phenyl]methyl]-pentanamide]
≥ 80%: inhibition of growth at 20 ppm [1] | pest or weed control at 200 ppm (Phakopsora Pachyrhizi) | pest or weed control at 200 ppm [2] | pest or weed control at 200 ppm [3]

CCCC(=O)N(Cc1ccc(-c2noc(C(F)(F)F)n2)cc1)OC [Compound 1.24, N-methoxy-N-[[4-[5-(trifluoromethyl)-1,2,4-oxadiazol-3-yl]phenyl]methyl]-butanamide]
≥ 80%: inhibition of growth at 20 ppm [1] | pest or weed control at 200 ppm (Phakopsora Pachyrhizi) | pest or weed control at 200 ppm [2] | pest or weed control at 200 ppm [3]

CON(Cc1ccc(-c2noc(C(F)(F)F)n2)cc1)C(=O)CC1CC1 [Compound 1.26, 2-cyclopropyl-N-methoxy-N-[[4-[5-(trifluoromethyl)-1,2,4-oxadiazol-3-yl]phenyl]methyl]-acetamide]
≥ 80%: inhibition of growth at 20 ppm [1] | pest or weed control at 200 ppm (Phakopsora Pachyrhizi) | pest or weed control at 200 ppm [2] | pest or weed control at 200 ppm [3]

CON(Cc1ccc(-c2noc(C(F)(F)F)n2)cc1)C(=O)C1CCCC1 [Compound 1.27, N-methoxy-N-[[4-[5-(trifluoromethyl)-1,2,4-oxadiazol-3-yl]phenyl]methyl]-cyclopentane-carboxamide]
≥ 80%: inhibition of growth at 20 ppm [1] | pest or weed control at 200 ppm (Phakopsora Pachyrhizi) | pest or weed control at 200 ppm [2] | pest or weed control at 200 ppm [3]

CON(Cc1ccc(-c2noc(C(F)(F)F)n2)cc1)C(=O)Cc1cccnc1 [Compound 1.28, N-methoxy-2-(3-pyridyl)-N-[[4-[5-(trifluoromethyl)-1,2,4-oxadiazol-3-yl]phenyl]methyl]-acetamide]
≥ 80%: inhibition of growth at 20 ppm [1] | pest or weed control at 200 ppm (Phakopsora Pachyrhizi) | pest or weed control at 200 ppm [2] | pest or weed control at 200 ppm [3]

CON(Cc1ccc(-c2noc(C(F)(F)F)n2)cc1)C(=O)C1CCOC1 (centres unmarked) [Compound 1.29, N-methoxy-N-[[4-[5-(trifluoromethyl)-1,2,4-oxadiazol-3-yl]phenyl]methyl]-tetrahydrofuran-3-carboxamide]
≥ 80%: inhibition of growth at 20 ppm [1] | pest or weed control at 200 ppm (Phakopsora Pachyrhizi) | pest or weed control at 200 ppm [2] | pest or weed control at 200 ppm [3]

CON(Cc1ccc(-c2noc(C(F)(F)F)n2)cc1)C(=O)C1CSC1 [Compound 1.30, N-methoxy-N-[[4-[5-(trifluoromethyl)-1,2,4-oxadiazol-3-yl]phenyl]methyl]-thietane-3-carboxamide]
≥ 80%: inhibition of growth at 20 ppm [1] | pest or weed control at 200 ppm (Phakopsora Pachyrhizi) | pest or weed control at 200 ppm [2] | pest or weed control at 200 ppm [3]

O=C(C1CCCO1)N(Cc1ccc(-c2noc(C(F)(F)F)n2)cc1)C1COC1 (centres unmarked) [Compound 1.747, N-(oxetan-3-yl)-N-[[4-[5-(trifluoromethyl)-1,2,4-oxadiazol-3-yl]phenyl]methyl]-tetrahydrofuran-2-carboxamide]
≥ 80%: pest or weed control at 200 ppm (Phakopsora Pachyrhizi) | pest or weed control at 200 ppm [2] | pest or weed control at 200 ppm [3]

N#CCC(=O)N(Cc1ccc(-c2noc(C(F)(F)F)n2)cc1)C1COC1 [Compound 1.748, 2-cyano-N-(oxetan-3-yl)-N-[[4-[5-(trifluoromethyl)-1,2,4-oxadiazol-3-yl]phenyl]methyl]-acetamide]
≥ 80%: pest or weed control at 200 ppm (Phakopsora Pachyrhizi) | pest or weed control at 200 ppm [2] | pest or weed control at 200 ppm [3]

CC1(C(=O)ON(Cc2ccc(-c3noc(C(F)(F)F)n3)cc2)C(=O)C2(C)COC2)COC1 [Compound 1.767, [(3-methyloxetane-3-carbonyl)-[[4-[5-(trifluoromethyl)-1,2,4-oxadiazol-3-yl]phenyl]methyl]-amino] 3-methyloxelane-3-carboxylate]
≥ 80%: pest or weed control at 200 ppm (Phakopsora Pachyrhizi) | pest or weed control at 200 ppm [2] | pest or weed control at 200 ppm [3]
